The test system of assay [1] is Arabidopsis pls mutant seedlings (primary root length). The experiment in a line: Hydroponic peptide feeding: rescue of short primary root of pls mutant. The format is in vivo, Arabidopsis thaliana. The procedure:
(A) Amino acid sequence of the PLS peptide from Arabidopsis thaliana with the Camelina sativa PLS sequence and the synthetic truncations N1, N2, C1, and C2 indicated by horizontal lines. Two cysteine residues are highlighted in bold. (B) Effect of the synthetic Arabidopsis PLS full-length peptide, A. thaliana PLS(FL), and the Camelina PLS peptide (C. sativa PLS) on Arabidopsis primary root length. Wild-type (C24; blue bars) and pls mutant seedlings (orange bars) were grown hydroponically in the presence (100 nM) or absence of peptide for 10 days. ∗∗∗P < 0.05, t-test between C24 and pls. Error bars show ±1 standard error of the mean, n = 20. (C) Effect of synthetic full-length and truncated peptides on primary root length of wild-type (blue bars) and pls mutant (orange bars) Arabidopsis. Seedlings were grown hydroponically in the presence of 50 nM peptide for 10 days. C1, C-terminal 14 amino acids; C2, C-terminal 24 amino acids; N1, N-terminal 22 amino acids; N2, N-terminal 9 amino acids; full-length PLS, 36 amino acids. Error bars show ±1 standard error of the mean, n = 25. ∗∗∗P < 0.05, t-test between C24 and pls.
proPLS::PLS:GFP comprises a 1.5-kb PLS promoter sequence ([Casson et al., 2002]) fused to the PLS open reading frame in pMDC107 (obtained from Prof. P.J. Hussey, Durham University) as a C-terminal GFP translational fusion. The PLS ORF with its 1.5-kb promoter was amplified from the TOPO 2.1 vector, which contained the PLS gene sequence with promoter ([Casson et al., 2002]); the primers used for cloning are listed in supplemental Table 9. pls mutant plants were transformed using the method of [Clough and Bent (1998)]. proPLS::GFP plants were generated using the 1.5-kb PLS promoter ([Casson et al., 2002]) fused to GFP in a wild-type background. p35S::GFP seedlings were obtained from Dr. Piers Hemsley, Durham University. Seedlings of Arabidopsis thaliana ecotype C24 or Col-0, pls mutants, and transgenic PLS overexpressers, all from lab stocks, were grown on solid sterile half-strength (2.2 g/l) Murashige and Skoog medium (Sigma-Aldrich) containing 10 g/l sucrose (half-strength [½] MS10 medium) solidified with 2.5 g/l Phytagel (Sigma-Aldrich) in 90-mm Petri dishes (Sarstedt, Leicester, UK) at 21°C under a 16-h photoperiod as described previously ([Casson et al., 2002]; [Chilley et al., 2006]). N. benthamiana plants (lab stocks) were grown in a controlled environment (21°C, 16-h photoperiod) for transient expression studies in leaf tissue. For hydroponic feeding studies, Arabidopsis seedlings were cultured in liquid ½ MS10 medium (1 ml/well) in sterile 24-well plates (Sarstedt), essentially as described in [Matsuzaki et al. (2010]). For hormone and peptide assays, one seedling was grown in each well at 21°C under a 16-h photoperiod. For peptide feeding experiments, purified freeze-dried peptide was dissolved in DMSO to create a 500-μM stock solution. The peptide stock solution was added to liquid ½ MS10 medium containing 0.1% DMSO to obtain a final peptide concentration of 50 or 100 nM (or 10, 25, 50, and 100 nM for dose-dependent assays). For copper treatments, 1 mM CuSO4 solution was filter sterilized and added to autoclaved liquid ½ MS10 medium to obtain final CuSO4 concentrations of 0, 5, 10, 15, 20, 25, 30, 35, 40, 45, and 50 μM. Seedlings were scanned to create a digital image, and root lengths of the seedlings were measured using ImageJ. Statistical analysis was performed using Real Statistics Resource Pack software (release 3.8, www.real-statistics.com) in Excel (Microsoft) using data from at least 10 independently grown seedlings for root growth analysis; specific numbers are defined for each experiment.

For a further assay, the system named is ETR1. Nature of the assay: Yeast 2-hybrid PLS-ETR1. The format is binding, Arabidopsis. Particulars: preliminary yeast 2-hybrid, YRG-2 strain. The procedure: The GAL4 2-hybrid phagemid vector system was used to detect protein–protein interactions in vivo in yeast, using the reporter genes β-galactosidase (lacZ) and histidine (HIS3) in the YRG-2 yeast strain, essentially as described previously ([Zhong et al., 2008]). DNA sequences encoding the target (ETR1) and bait (PLS) were inserted into the pAD-GAL4-2.1 A and pBD-GAL4 Cam phagemid vectors, respectively, and expressed as hybrid proteins. The hybrid proteins were then assayed for protein–protein interaction.
DNA sequences encoding the target and bait proteins were prepared by PCR amplification using primers designed specifically for the target (ETR1) and bait (PLS). Each set of primers contained specific endonuclease recognition sites on the ends corresponding to the restriction sites in the MCS of the pAD-GAL4-2.1 A and pBD-GAL4 Cam phagemid vectors. The DNA constructs for the target (ETR1) and bait (PLS) with specific restriction sites on the ends were then transformed into the TOPO 2.1 vector, and the sequence of the amplified DNA was confirmed by sequencing with M13 forward (CTG GCC GTC GTT TTA C) and M13 reverse (CAG GAA ACA GCT ATG AC) primers. […] The DNA sequences encoding the target (ETR1) and bait (PLS) were then ligated into the same reading frame as the GAL4 AD of the pAD-GAL4-2.1 phagemid vector and the GAL4 BD of the pBD-GAL4 Cam phagemid vector. […]

Assay [2] can be described thus: Anaerobic Cu(I) titration monitored by UV-vis and fluorescence spectra. The format is binding. Particulars: 19.8 μM synthetic PLS, titration with CuCl; features at 242 nm and 306 nm. The procedure: Freeze-dried synthetic PLS peptide (Cambridge Research Biochemicals) was dissolved in DMSO. An aliquot was added to aqueous buffer (10 mM HEPES [pH 7], 20 mM NaCl, 80 mM KCl), and absorbance was recorded at 280 nm. PLS concentration was estimated from the absorbance and the ProtParam estimated extinction coefficient of 2980 M^−1 cm^−1. Concurrently, a sample was submitted for quantitative amino acid analysis (Abingdon Health Laboratory Services). From this analysis, a conversion factor of 2.27 was generated, which was applied to the concentrations determined by A280 nm.
All Cu(I) titration experiments were carried out in an anaerobic chamber (Belle Technology) using metal-free CHELEX-treated, degassed buffers. […] The reductant NH2OH was included at a final concentration of 1 mM to maintain Cu(I) in its reduced state. […] After each addition, solutions were thoroughly mixed and absorbance spectra recorded using a Lambda 35 UV/Vis spectrophotometer (PerkinElmer). Titration isotherm data were fitted using simulated affinity curves with DynaFit ([Kuzmič, 2009]).

A value given as a limit tells only on which side of the number the result lay.

Turning to “PLS(FL): full-length 36-amino-acid PLS peptide from Arabidopsis (MKPRLCFNFRRRSISPCYISISYLLVAKLFKLFKIH)”, the “rescue of root growth of pls seedlings” value in assay [1] (50 nM peptide, hydroponic, 10 days, n = 25 (Figure 2C)) is “rescued root growth”. Further, the “difference in rescue effects of PLS(FL) and PLS(N1), t-test P” value in assay [1] (50 nM, n = 25) is more than 0.1. The “difference in rescue effects of PLS(FL) and PLS(N1)” value in assay [1] (50 nM, n = 25, t-test) was “did not differ significantly”. Further, the “rescue of short primary root length of pls mutant” value in assay [1] (hydroponic, 10 days, 100 nM (Figure 2B) or 50 nM (Figure 2C)) was “able to rescue the short primary root length”. Moreover, the “interaction with ETR1” value in the assay with ETR1 is reported as “interacts with ETR1”. The “Cu(I)-dependent change of UV-vis and fluorescence spectra” value in assay [2] is listed as “consistent with complex formation”.

For the origin of these results see paper PMC12744750 (Plant Communications, 2025).
